How the values were obtained:
[1] = tested on: O=[Se](O)O; assay: purified protein; settings: 50 uM GSH, 200 uM NADPH, 50 nM GR, pH 7.5, 20 °C, reduced monomer, selenite 0-16 uM
[2] = molecular target: T1, CLIC4 (Homo sapiens, UniProt Q9Y696); assay: DHAR assay, GR-coupled NADPH oxidation at A340; format: biochemical; settings: 5 uM protein, 1 mM DHA, 2 mM GSH, pH 7.5, 30 °C
[3] = molecular target: CLIC1 (Homo sapiens, UniProt O00299, C59A); settings: 1 mM GSH, 250 uM NADPH, 50 nM GR, pH 7, 37 °C; HEDS range printed as 0-6 mM, so printed unit uM is doubtful
[4] = molecular target: T2, CLIC1 (Homo sapiens, UniProt O00299); settings: 1 mM GSH, 250 uM NADPH, 50 nM GR, pH 7, 37 °C; reduced monomer; HEDS range printed as 0-6 mM, so printed unit uM is doubtful
[5] = molecular target: T1, CLIC4; assay: HEDS assay, GR-coupled NADPH oxidation at A340; format: biochemical; settings: 5 uM protein, 1 mM HEDS, 1 mM GSH, pH 7, 37 °C
[6] = molecular target: T3, CLIC2 (Homo sapiens, UniProt O15247); assay: HEDS assay, GR-coupled NADPH oxidation at A340; format: biochemical; settings: 5 uM protein, 1 mM HEDS, 1 mM GSH, pH 7, 37 °C
T3 construct: full length, N-terminal GST tag (pGEX-2T) cut with thrombin; E. coli BL21(DE3)
T3 sequence (O15247 whole entry): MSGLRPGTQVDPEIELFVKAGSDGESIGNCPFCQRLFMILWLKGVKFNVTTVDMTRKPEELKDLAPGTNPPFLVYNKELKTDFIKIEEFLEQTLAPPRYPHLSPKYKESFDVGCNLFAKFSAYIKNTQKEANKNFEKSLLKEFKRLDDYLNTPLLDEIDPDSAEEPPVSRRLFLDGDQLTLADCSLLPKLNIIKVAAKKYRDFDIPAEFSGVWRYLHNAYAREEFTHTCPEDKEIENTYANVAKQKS

[7] = molecular target: T2, CLIC1; assay: HEDS assay, GR-coupled; format: biochemical; parameters: full length, His-tag (pET28a) cut with thrombin; E. coli BL21(DE3); reduced monomer by SEC; settings: 5 uM CLIC1, 1 mM HEDS, 1 mM GSH, pH 7, 37 °C; mode and site not determined

T1 sequence (Q9Y696 2-253): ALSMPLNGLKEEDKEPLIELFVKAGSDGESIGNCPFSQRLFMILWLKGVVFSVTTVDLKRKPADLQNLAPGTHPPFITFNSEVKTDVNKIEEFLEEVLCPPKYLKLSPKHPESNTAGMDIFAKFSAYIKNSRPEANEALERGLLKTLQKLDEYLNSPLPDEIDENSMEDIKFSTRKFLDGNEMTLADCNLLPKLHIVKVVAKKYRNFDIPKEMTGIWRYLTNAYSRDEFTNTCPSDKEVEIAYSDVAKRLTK

## CLIC1 (Homo sapiens)
[1]
  Km: 4.81 ± 3.00 µM

## O=C1O[C@H]([C@@H](O)CO)C(=O)C1=O [dehydroascorbic acid]
[2]
  DHAR assay, GR-coupled NADPH oxidation at A340: NADPH consumption increased in the presence of CLIC1 or CLIC4

## OCCSSCCO [2-hydroxyethyl disulfide]
[3]
  Km: 1.25 ± 0.65 µM
[4]
  Km: 1.28 ± 0.65 µM
[5]
  HEDS assay, GR-coupled NADPH oxidation at A340: all three proteins reduced the HEDS substrate when coupled with glutathione (GSH)
[6]
  HEDS assay, GR-coupled NADPH oxidation at A340: all three proteins reduced the HEDS substrate when coupled with glutathione (GSH)

## O=C(O)c1c2ccccc2cc2ccccc12 [A9C]
[7]
  complete inhibition at 10 uM: both IAA-94 and A9C completely blocked the enzymatic activity of CLIC1

## CC1(C2CCCC2)Cc2cc(OCC(=O)O)c(Cl)c(Cl)c2C1=O (centres unmarked) [IAA-94]
[7]
  complete inhibition at 10 uM: both IAA-94 and A9C completely blocked the enzymatic activity of CLIC1

From publication PMC4291220 (PLoS ONE, 2015)
